# Experimental data reported in paper PMC10451632, “Site Mutation Improves the Expression and Antimicrobial Properties of Fungal Defense” (Antibiotics, 2023).
# Bridge positions count the residues as written; N and C are the ends. Peptide text beside a SMILES is read from it.
# Legend:
# [1] = Thermal stability, MIC read-out; assay type: physicochemical; details: 1 h, 1280 μg/mL in physiological saline, triplicate
# Protocol: (§1) PN7 dissolved in physiological saline solution was prepared into mother liquor with a concentration of 1280 μg/mL and incubated at different temperatures for 1 h. PN7 was dissolved in different pH buffers at 37 °C for 4 h. After double gradient dilution, MIC assays were used to detect the change in antibacterial activity.
# S. aureus ATCC 43300 [2] = experiment: Time-killing curves; assay type: cell-based, Staphylococcus aureus; details: for reduction of bacterial counts during the first two hours: initial inoculum 5.15 Log10 CFU/mL, MHB, 37 °C, 250 rpm, triplicate
# Protocol: S. aureus ATCC 43300 was cultured to the logarithmic stage, MHB medium was used for adjusting the concentration of bacterial suspension, and PN7 (1×, 2× and 4× MIC), Plectasin (1×, 2× and 4× MIC) and 2× MIC vancomycin (the MIC was 1 μg/mL) were added into the suspensions containing 10^5 CFU/mL bacteria (after the count of viable bacteria detection, the initial inoculation amount was 5.15 Log10 CFU/mL), cultured at 37 °C and 250 rpm. A 100 CFU/mL is considered the detection limit. […] In contrast, the count was reduced by 1.6 Log10 CFU/mL after treatment with 2× MIC vancomycin, an approximately 66% population decrease of target pathogens compared with the PN7 treatment group at the same time point of the second hour. After 4 h, the colony number of the peptide treatment group was almost 0, while that of the vancomycin treatment group was 0 after 8 h, at 4 h later than the PN7 treatment. At 24 h, the number of colonies of only 1× MIC Plectasin treatment group rebounded, while no such phenomenon occurred in the other treatment groups.
# S. aureus ATCC 43300 was cultured to the logarithmic stage. MHB medium adjusted the concentration of bacterial suspension, and PN7 (1×, 2× and 4× MIC) was added into the suspensions containing 10^5 CFU/mL bacteria, cultured at 37 °C and 250 rpm. 1×, 2×, 4× MIC Plectasin and 2× MIC vancomycin were used as positive controls, and the group treated without antibiotics was used as the blank controls. Then, 100 μL samples were taken at different time points and were continuously diluted and coated on MHA medium for colony counting. A 100 CFU/mL is considered the detection limit.
# [3] = pH stability, MIC read-out; assay type: physicochemical; details: pH from 2 to 10, buffers, 37 °C, 4 h, MIC read-out after dilution, triplicate
# Protocol: as §1
# [4] = Stability in simulated intestinal fluid, MIC read-out; assay type: in vitro ADME
# Protocol: The stability of peptide PN7 in SGF, SIF, and 25% or 50% mouse serum was carried out as previously described. A final concentration of 1280 μg/mL PN7 was prepared and incubated at 37 °C and then diluted twice. The MIC was determined.
# S. aureus ATCC 43300 [5] = experiment: Post antibiotic effect (PAE); assay type: cell-based, Staphylococcus aureus
# From the text: The post-antibiotic effect reflects the inhibitory effect on the growth of pathogenic bacteria after short contact with drugs, which is related to the strength of the bactericidal activity of drugs. The test method of the PAE of PN7 against S. aureus ATCC 43300 refers to the descriptions in previous studies.
# S. aureus CICC 10473 = experiment: MIC, microtiter broth dilution; assay type: cell-based, Staphylococcus aureus; details: MHB, 10^5 CFUs/mL, 16–18 h at 37 °C
# Protocol: (§2) The MIC value of PN7 against bacteria was determined by the microtiter broth dilution method. Briefly, bacteria grown to the exponential phase were diluted into MHB; subsequently, 90 μL of bacterial suspension (10^5 CFUs/mL) was mixed with 10 μL of different concentrations of PN7 in a sterilized 96-well microtiter plate (Nunc). MIC values were recorded after incubation for 16–18 h at 37 °C based on the lowest concentrations of peptides in which no visible bacterial growth was observed.
# P. aeruginosa CICC 21630 = experiment: MIC, microtiter broth dilution; assay type: cell-based, Pseudomonas aeruginosa; details: MHB, 10^5 CFUs/mL, 16–18 h at 37 °C
# Protocol: as §2
# E. coli ATCC 25922 = experiment: MIC, microtiter broth dilution; assay type: cell-based, Escherichia coli; details: MHB, 10^5 CFUs/mL, 16–18 h at 37 °C
# Protocol: as §2
# E. coli O157 = experiment: MIC, microtiter broth dilution; assay type: cell-based, Escherichia coli; details: MHB, 10^5 CFUs/mL, 16–18 h at 37 °C
# Protocol: as §2
# E. coli CVCC 1515 = experiment: MIC, microtiter broth dilution; assay type: cell-based, Escherichia coli; details: MHB, 10^5 CFUs/mL, 16–18 h at 37 °C
# Protocol: as §2
# mouse erythrocytes = experiment: Hemolytic activity; assay type: cell-based; details: 128 μg/mL; fresh mouse red blood cells; 0.1% Triton X-100 = 100% hemolysis; mean of three biological replicates
# Protocol: The hemolytic activity of PN7 was evaluated based on the amount of the released hemoglobin from erythrocyte suspensions of healthy mouse blood. Erythrocyte suspensions treated with 0.1% Triton X-100 and saline were used as 100% hemolysis and negative control, respectively.
smiles,measurement,setting,value
"CC[C@H](C)[C@@H]1NC(=O)[C@H](CO)NC(=O)[C@H](CCCCN)NC(=O)[C@@H]2CSSC[C@@H](C(=O)N[C@@H](Cc3ccc(O)cc3)C(=O)O)NC(=O)[C@H](CCCCN)NC(=O)[C@@H]3CSSC[C@H](NC(=O)[C@H](CCCNC(=N)N)NC(=O)CNC(=O)[C@H](CC(=O)O)NC(=O)[C@H](CC(=O)O)NC(=O)[C@H](CCC(=O)O)NC(=O)[C@H](Cc4ccc(O)cc4)NC(=O)[C@H](Cc4c[nH]c5ccccc45)NC(=O)[C@@H]4CCCN4C(=O)CNC(=O)[C@H](CC(N)=O)NC(=O)[C@@H](NC(=O)CNC(=O)[C@H](Cc4ccccc4)NC(=O)CN)CSSC[C@H](NC(=O)[C@H](Cc4ccc(O)cc4)NC(=O)CNC(=O)CNC(=O)[C@H](CCCCN)NC(=O)[C@H](Cc4ccc(O)cc4)NC(=O)CNC(=O)[C@H](CCCCN)NC1=O)C(=O)N[C@@H](C)C(=O)N[C@@H](CCCCN)C(=O)NCC(=O)NCC(=O)N[C@@H](Cc1ccccc1)C(=O)N[C@@H](C(C)C)C(=O)N3)C(=O)N[C@@H](Cc1c[nH]cn1)C(=O)N[C@@H](CC(N)=O)C(=O)N[C@@H](Cc1c[nH]cn1)C(=O)N2 [PN7] (H-GFGCNGPWYEDDGRCHNHCKSIKGYKGGYCAKGGFVCKCY-OH; disulfide 4-30, 15-37, 19-39 (inferred); N-terminus and C-terminus assumed)",thermal stability (antibacterial activity),[1]; 20–80 °C,stable
same,decrease of antibacterial activity,[1]; 100 °C,1 fold
same,reduction of bacterial counts during the first two hours,S. aureus ATCC 43300 [2]; 1× MIC,2.25 Log10 CFU/mL
same,reduction of bacterial counts during the first two hours,S. aureus ATCC 43300 [2]; 2× MIC,2.42 Log10 CFU/mL
same,reduction of bacterial counts during the first two hours,S. aureus ATCC 43300 [2]; 4× MIC,2.72 Log10 CFU/mL
same,time to kill 99% of S. aureus ATCC 43300,"S. aureus ATCC 43300 [2]; time-kill, 2× MIC",≤ 2 h
same,pH stability (antibacterial activity),[3],stable
same,activity after incubation with simulated intestinal fluid (SIF),"[4]; 1280 μg/mL PN7, 37 °C, then two-fold dilution, triplicate",abolished the activity
same,sensitivity to trypsin,[4]; Figure 7E,sensitive to trypsin
same,"gap of PAE, PN7 versus vancomycin",S. aureus ATCC 43300 [5]; 1× MIC,12 times
same,"gap of PAE, PN7 versus vancomycin",S. aureus ATCC 43300 [5]; 2× MIC,3.648 times
same,"gap of PAE, PN7 versus vancomycin",S. aureus ATCC 43300 [5]; 4× MIC,3.513 times
same,MIC,S. aureus CICC 10473,4 µg/mL
same,MIC,P. aeruginosa CICC 21630,>128 µg/mL
same,MIC,E. coli ATCC 25922,>128 µg/mL
same,MIC,E. coli O157,>128 µg/mL
same,MIC,E. coli CVCC 1515,>128 µg/mL
same,hemolysis,mouse erythrocytes,0.19%
